tested on: ABCA-1 gene; assay: compounds tested and found to elevate cellular expression of the ABCA-1 gene (Examples 1-6; test not named); format: cell-based
Method: Activity testing is conducted as described in those patents and patent applications referenced above, and in the Examples below, and by methods apparent to one skilled in the art.

Compound	cellular expression of the ABCA-1 gene
CCCN(C(=O)Nc1cccc(F)c1)C(C)c1nc2ccccc2c(=O)n1-c1ccc2ccccc2c1 (stereo not drawn) [[(3-fluorophenyl)amino]-N-[(3-(2-naphthyl)-4-oxo(3-hydroquinazolin-2-yl))ethyl]-N-propylcarboxamide]	elevate cellular expression of the ABCA-1 gene
CC(=O)c1ccc(NC(=O)Nc2ccc(Cl)c(Cl)c2)cc1 [[(4-acetylphenyl)amino]-N-(3,4-dichlorophenyl)carboxamide]	elevate cellular expression of the ABCA-1 gene
CCCN(C(=O)Nc1ccc(Br)cc1)C(C)c1nc2ccccc2c(=O)n1-c1ccc2ccccc2c1 (stereo not drawn) [[(4-bromophenyl)amino]-N-[(3-(2-naphthyl)-4-oxo(3-hydroquinazolin-2-yl))ethyl]-N-propylcarboxamide]	elevate cellular expression of the ABCA-1 gene
CC(C)CN(C(=O)Nc1ccc(Cl)cc1)C(C)c1nc2ccccc2c(=O)n1-c1ccc2ccccc2c1 (stereo not drawn) [[(4-chlorophenyl)amino]-N-(2-methylpropyl)-N-[(3-(2-naphthyl)-4-oxo(3-hydroquinazolin-2-yl))ethyl]carboxamide]	elevate cellular expression of the ABCA-1 gene
O=C(Nc1ccc(Cl)cc1)NC1CCCCC1 [[(4-chlorophenyl)amino]-N-cyclohexylcarboxamide]	elevate cellular expression of the ABCA-1 gene
Cc1ccc(NC(=O)N(CC(C)C)C(C)c2nc3ccccc3c(=O)n2-c2ccc3ccccc3c2)cc1 (stereo not drawn) [[(4-methylphenyl)amino]-N-(2-methylpropyl)-N-[(3-(2-naphthyl)-4-oxo(3-hydroquinazolin-2-yl))ethyl]carboxamide]	elevate cellular expression of the ABCA-1 gene
CCCCCc1ccc(NC(=O)NC2=NCCS2)cc1 [[(4-pentylphenyl)amino]-N-(1,3-thiazolin-2-yl)carboxamide]	elevate cellular expression of the ABCA-1 gene
O=C(NCC1CCCCC1)Nc1ccc2c(c1)CCC2 [[(cyclohexylmethyl)amino]-N-indan-5-ylcarboxamide]	elevate cellular expression of the ABCA-1 gene
CCOc1ccc2nc(NC(=O)NC(C)(C)C)sc2c1 [[t-butylamino]-N-(6-ethoxybenzothiazol-2-yl)carboxamide]	elevate cellular expression of the ABCA-1 gene
O=C(Nc1ccc(F)cc1F)c1cc2ccccc2s1 [benzo[b]thiophen-2-yl-N-(2,4-difluorophenyl)carboxamide]	elevate cellular expression of the ABCA-1 gene
O=C(Nc1nc2c(Cl)cccc2s1)c1cc2ccccc2s1 [benzo[b]thiophen-2-yl-N-(4-chlorobenzothiazol-2-yl)carboxamide]	elevate cellular expression of the ABCA-1 gene
O=C(Nc1nc2ccccc2s1)c1cc2ccccc2s1 [benzo[b]thiophen-2-yl-N-benzothiazol-2-ylcarboxamide]	elevate cellular expression of the ABCA-1 gene
Cc1cc(C(=O)c2cc3ccccc3o2)ccc1Cl [benzo[d]furan-2-yl 4-chloro-3-methylphenyl ketone]	elevate cellular expression of the ABCA-1 gene
COc1cccc(Nc2nc3ccccc3s2)c1 [benzothiazol-2-yl-(3-methoxyphenyl)amine]	elevate cellular expression of the ABCA-1 gene
O=C(Nc1ncc(-c2ccccc2)s1)C1CCCCC1 [cyclohexyl-N-(5-phenyl(1,3-thiazol-2-yl))carboxamide]	elevate cellular expression of the ABCA-1 gene
O=C(Nc1nc(-c2ccc3ccccc3c2)cs1)C1CCCC1 [cyclopentyl-N-(4-(2-naphthyl)(1,3-thiazol-2-yl))carboxamide]	elevate cellular expression of the ABCA-1 gene
O=C(Nc1ncc(-c2ccccc2)s1)C1CCCC1 [cyclopentyl-N-(5-phenyl(1,3-thiazol-2-yl))carboxamide]	elevate cellular expression of the ABCA-1 gene
O=C(Nc1nc(-c2ccccc2)ns1)C1CC1 [cyclopropyl-N-(3-phenyl(1,2,4-thiadiazol-5-yl))carboxamide]	elevate cellular expression of the ABCA-1 gene
O=C(Nc1ncc(-c2ccccc2)s1)C1CC1 [cyclopropyl-N-(5-phenyl(1,3-thiazol-2-yl))carboxamide]	elevate cellular expression of the ABCA-1 gene
O=C(Nc1ncc(-c2ccc(F)cc2)s1)C1CC1 [cyclopropyl-N-[5-(4-fluorophenyl)(1,3-thiazol-2-yl)]carboxamide]	elevate cellular expression of the ABCA-1 gene

Compound	cellular expression of the ABCA-1 gene
CCOC(=O)C1CCCCN1C(=O)c1ccc2c(c1)OCO2 (stereo not drawn) [ethyl 1-(2H-benzo[d]1,3-dioxolen-5-ylcarbonyl)piperidine-2-carboxylate]	elevate cellular expression of the ABCA-1 gene
CCOC(=O)C1=C(NCCc2ccccc2)CCN(C(=O)c2ccc(Cl)cc2Cl)C1 [ethyl 1-[(2,4-dichlorophenyl)carbonyl]-4-[(2-phenylethyl)amino]-1,2,5,6-tetrahydropyridine-3-carboxylate]	elevate cellular expression of the ABCA-1 gene
CCOC(=O)C1=C(NCCc2ccccc2)CCN(C(=O)c2ccc([N+](=O)[O-])cc2Cl)C1 [ethyl 1-[(2-chloro-4-nitrophenyl)carbonyl]-4-[(2-phenylethyl)amino]-1,2,5,6-tetrahydropyridine-3-carboxylate]	elevate cellular expression of the ABCA-1 gene
CCOC(=O)C1=C(NCCc2ccccc2)CCN(C(=O)c2ccccc2C)C1 [ethyl 1-[(2-methylphenyl)carbonyl]-4-[(2-phenylethyl)amino]-1,2,5,6-tetrahydropyridine-3-carboxylate]	elevate cellular expression of the ABCA-1 gene
CCOC(=O)C1=C(NCCc2ccccc2)CCN(C(=O)c2ccc(Br)cc2)C1 [ethyl 1-[(4-bromophenyl)carbonyl]-4-[(2-phenylethyl)amino]-1,2,5,6-tetrahydropyridine-3-carboxylate]	elevate cellular expression of the ABCA-1 gene
CCOC(=O)C1=C(NCCc2ccccc2)CCN(C(=O)c2ccc(CC)cc2)C1 [ethyl 1-[(4-ethylphenyl)carbonyl]-4-[(2-phenylethyl)amino]-1,2,5,6-tetrahydropyridine-3-carboxylate]	elevate cellular expression of the ABCA-1 gene
CCOC(=O)C1=C(NCCc2ccccc2)CCN(C(=O)c2ccc(F)cc2)C1 [ethyl 1-[(4-fluorophenyl)carbonyl]-4-[(2-phenylethyl)amino]-1,2,5,6-tetrahydropyridine-3-carboxylate]	elevate cellular expression of the ABCA-1 gene
CCOC(=O)C1=C(NCCc2ccccc2)CCN(C(=O)c2ccc(OC)cc2)C1 [ethyl 1-[(4-methoxyphenyl)carbonyl]-4-[(2-phenylethyl)amino]-1,2,5,6-tetrahydropyridine-3-carboxylate]	elevate cellular expression of the ABCA-1 gene
CCOC(=O)C1=C(NCCc2ccccc2)CCN(C(=O)c2ccc(C)cc2)C1 [ethyl 1-[(4-methylphenyl)carbonyl]-4-[(2-phenylethyl)amino]-1,2,5,6-tetrahydropyridine-3-carboxylate]	elevate cellular expression of the ABCA-1 gene
CCOC(=O)C1=C(NCCc2ccccc2)CCN(C(=O)c2ccc([N+](=O)[O-])cc2)C1 [ethyl 1-[(4-nitrophenyl)carbonyl]-4-[(2-phenylethyl)amino]-1,2,5,6-tetrahydropyridine-3-carboxylate]	elevate cellular expression of the ABCA-1 gene
CCOC(=O)C1=C(NCCc2ccccc2)CCN(C(=O)c2ccc(C(C)(C)C)cc2)C1 [ethyl 1-[(4-t-butylphenyl)carbonyl]-4-[(2-phenylethyl)amino]-1,2,5,6-tetrahydropyridine-3-carboxylate]	elevate cellular expression of the ABCA-1 gene
CCOC(=O)Cc1csc(NC(=O)Nc2ccccc2F)n1 [ethyl 2-(2-{[(2-fluorophenyl)amino]carbonylamino}-1,3-thiazol-4-yl)acetate]	elevate cellular expression of the ABCA-1 gene
CCOC(=O)CNC(=O)N(CCN(C)C)C(C)c1nc2ccccc2c(=O)n1-c1ccc2ccccc2c1 (stereo not drawn) [ethyl 2-({N-[2-(dimethylamino)ethyl]-N-[(3-(2-naphthyl)-4-oxo(3-hydroquinazolin-2-yl))ethyl]carbamoyl}amino)acetate]	elevate cellular expression of the ABCA-1 gene
CCOC(=O)CNC(=O)N(CCOC)C(C)c1nc2ccccc2c(=O)n1-c1ccc(Br)cc1 (stereo not drawn) [ethyl 2-[(N-{[3-(4-bromophenyl)-4-oxo(3-hydroquinazolin-2-yl)]ethyl}-N-(2-methoxyethyl)carbamoyl)amino]acetate]	elevate cellular expression of the ABCA-1 gene
CCOC(=O)CCN(CCc1ccccc1)C(=O)c1ccc2c(c1)OCO2 [ethyl 3-[2H-benzo[d]1,3-dioxolen-5-yl-N-(2-phenylethyl)carbonylamino]propanoate]	elevate cellular expression of the ABCA-1 gene
CCOC(=O)CCN(C(=O)CCc1ccccc1)c1ccc(Br)cc1 [ethyl 3-[(4-bromophenyl)-N-(2-phenylethyl)carbonylamino]propanoate]	elevate cellular expression of the ABCA-1 gene
CCOC(=O)CCN(C(=O)CCc1ccccc1)c1ccc(CC)cc1 [ethyl 3-[(4-ethylphenyl)-N-(2-phenylethyl)carbonylamino]propanoate]	elevate cellular expression of the ABCA-1 gene
CCOC(=O)C1=C(NCCc2ccccc2)CCN(C(=O)c2ccc(-c3ccccc3)cc2)C1 [ethyl 4-[(2-phenylethyl)amino]-1-[(4-phenylphenyl)carbonyl]-1,2,5,6-tetrahydropyridine-3-carboxylate]	elevate cellular expression of the ABCA-1 gene
CCOC(=O)c1ccc(NC(=O)Nc2ccccc2)cc1 [ethyl 4-[(phenylamino)carbonylamino]benzoate]	elevate cellular expression of the ABCA-1 gene

Reference: patent publication US6900219B2, “ABCA-1 elevating compounds” (CV Therapeutics, Inc., priority 2002, dated 2005)
